Series [1] in a line: Adsorption to aluminum hydroxide, LC-MS/MS of supernatant. As to the method:
The resulting solution was diluted 10-fold with blank histidine buffer to a final compound concentration of 0.1 mg/mL. Diluted solutions were incubated at 37° C. for 5 hours. The samples were centrifuged at 14,000 rpm for 10 minutes to pellet the insoluble. The supernatant (along with an internal standard) was then evaluated by LC-MS/MS using a ballistic gradient (from 5% CH3CN-0.5% formic acid to 95% CH3CN-1.0% formic acid in 3.5 minutes) on a Waters Atlantis dC18 (50 mm×2.1 mm) column at room temperature against a calibration curve prepared at known compound concentrations ranging from 0.005 to 50 μM. The concentration in the supernatant was calculated as % unbound to alum compared to control; the % bound to alum was calculated as 100% minus % unbound.

The nature of series [2]: Systemic serum exposure after intramuscular injection. The class given is in vivo. The note with it: intramuscular injection 100 μg (4 mg/kg), Balb/C mice. As to the method:
Systemic serum exposure of the compounds is followed for 24 hours.

The nature of series [3]: Muscle levels 24 hours after intramuscular injection. Particulars: 24 hours after intramuscular injection (100 μg) with protein antigens, Balb/C mice.
Series [4] is described as follows: Adsorption to and desorption from aluminum hydroxide, HPLC (compound-modified alum formulation). The class given is physicochemical. The note with it: alum formulation as for compound 1. Here is the method: SDS-PAGE was used to evaluate the effect of the binding of compound 1 to aluminum hydroxide adjuvant on the ability of MenB antigens to bind to aluminum hydroxide adjuvant. Compound 1 was dissolved in 10 mM NaOH at 0.5 mg/ml final concentration. Alum and Compound 1 were combined at 1:6 (Compound 1:Alum) weight ratio in the presence of 10 mM Histidine final concentration. The pH was adjusted to 9.2 and the mixture was gently agitated for 3 hours at room temperature, allowing the reaction to occur. The mixture was centrifuged at 5000×g for 10 minutes and the supernatant discarded. The pellet (i.e. the compound 1-modified Alum) was resuspended in the initial Alum buffer to obtain the starting alum concentration. The pH was adjusted to 6.5. The modified Alum was then used for the formulation with the MenB antigens.
The adsorption of compound 16 and compound 17 to aluminum hydroxide was also evaluated using the alum formulation described above for compound 1. […] In addition, SDS-PAGE analysis of antigen binding in the presence of compound 16 or compound 17 was carried out as described above.

Series [5] in a line: Binding to aluminum hydroxide adjuvant, HPLC of supernatant. It counts as physicochemical. The note with it: 100 μg/dose, room temperature and 37° C., 1, 5 and 24 hours. As to the method: The binding of the compounds of Formula (I) provided herein to aluminum-containing adjuvants at pH 9 and pH 6.5 was evaluated using HPLC to monitor the presence of the compound of Formula (I) in the supernatant.
(§1) Compound 1 (0.5 mg/mL) was dissolved in 10 mM NaOH and added to aluminum hydroxide adjuvant (2 mg/mL) resulting in a 100 μg/dose formulation. The supernatant was evaluated with HPLC using a ballistic gradient (from 10% CH3CN-0.1% TFA to 100% CH3CN-0.1% TFA in 2.5 minutes) on a C18 ([…]×4.6 mm) ACE column at 45° C. To evaluate the effect of supernatant temperature and incubation time on binding, the supernatant was evaluated at a supernatant temperature of room temperature and at 37° C. after 1 hour, 5 hours and 24 hours. A control without aluminum hydroxide was also evaluated.
(§2) Compound 5 (1 mg/mL) was dissolved in 10 mM NaOH and added to aluminium hydroxide adjuvant (2 mg/mL) resulting in a 100 μg/dose formulation. The supernatant was evaluated with HPLC using a ballistic gradient (from 10% CH3CN-0.1% TFA to 100% CH3CN-0.1% TFA in 2.5 minutes) on a C18 ([…]×4.6 mm) ACE column at 45° C. To evaluate the effect of supernatant temperature and incubation time on binding, the supernatant was evaluated at a supernatant temperature of room temperature and at 37° C. after 1 hour, 5 hours and 24 hours. A control without aluminum hydroxide was also evaluated.
as §1, with “to aluminium” for “to aluminum”, “formulation. The pH of the solution was adjusted to pH 6.5 using HCl.” for “formulation.”
as §2, with “histidine buffer (1 mg/mL)” for “NaOH”

The nature of a further series: Solubility. The class given is physicochemical.
Series [6] is described as follows: Confocal microscopy of aluminium hydroxide adjuvant mixed with compound. It counts as physicochemical. The note with it: adjuvant 3 mg/ml, compound 0.25 mg/ml. The source says: Compound 1 is intrinsically fluorescent.
Series [7] in a line: Phosphate desorption and organic solvent extraction from aluminum hydroxide, HPLC. It counts as physicochemical. Here is the method:
An organic solvent extraction method was used to evaluate whether compound 1 was covalently bound to aluminum hydroxide. The formulation was prepared as follows: 2 mg/ml aluminum hydroxide, 100 μg/dose compound 1, 10 mM histidine buffer) and the pH was adjusted to 9. A control formulation without aluminum hydroxide was also prepared.
One ml of the formulation containing Alum was mixed with 1 ml of KH2PO4 1M pH 9 (0.5M final conc, pH 9) and was left in gentle agitation overnight at 37° C. to allow desorption of compound 1 (compound 5) from the aluminum hydroxide via ligand exchange with the phosphate anions. Organic extraction was then performed: 1 ml of each sample was mixed with 1 ml of n-butanol and vortexed. After the formation of 2 phases, the upper phase (butanol) was recovered, dried with N2 and resuspended in MeOH/10 mM NaOH. HPLC analysis was run both for the formulation supernatants and for the butanol extracted samples (C18 column; 0-100% B in 2 min; A=0.1% TFA in H2O; B=0.1% TFA in ACN). […]

The mark [8] stands for this setting: 10 mM histidine buffer pH 6.8, final compound concentration 0.1 mg/mL, 37° C. for 5 hours, 100% minus % unbound.
Setting [9] is: with aluminium hydroxide adjuvant.
Where [10] appears, read: without aluminium hydroxide adjuvant.
Setting [11] is: pH 9, 10 mM NaOH, aluminum hydroxide 2 mg/mL.

Structures are written as SMILES.

`Cc1cc(OCCOCCC(F)(F)P(=O)(O)O)ccc1CCc1cnc2c(N)nc3cc(CCC(=O)O)ccc3c2c1` [Compound 19, 3-(5-amino-2-(4-(2-(3,3-difluoro-3-phosphonopropoxy)ethoxy)-2-methylphenethyl)benzo[f][1,7]naphthyridin-8-yl)propanoic acid]: the “% bound to alum” value in series [1] (5 h, 0.1 mg/mL, pH 6.8) worked out at 96.0%.
Take `Cc1cc(OCCCC(F)(F)P(=O)(O)O)ccc1CCc1cnc2c(N)nc3cc(CCC(=O)O)ccc3c2c1` [Compound 16, 3-(5-amino-2-(4-(4,4-difluoro-4-phosphonobutoxy)-2-methylphenethyl)benzo[f][1,7]naphthyridin-8-yl)propanoic acid]: the “% bound to alum” value in series [1] (setting [8]) was determined as 94.5%. For the same molecule, the figures for the “serum concentration profile over 24 hours” value in series [2] (adsorbed to aluminium hydroxide adjuvant) and in series [2] (unadsorbed (buffer alone)) were “much flatter response which is sustained for a longer period” and “high initial serum concentration which rapidly declines”, respectively. For the same molecule, the results for the “muscle level of compound” value in series [3] (setting [9]) and in series [3] (setting [10]) were “readily detected” and “undetectable”, respectively. Besides, in series [4], the “compound in supernatant after addition of aluminum hydroxide (HPLC)” value is “no compound was observed in the supernatant”.
Consider `Cc1ccc2c(c1)nc(N)c1ncc(CCc3ccc(OCCCP(=O)(O)O)cc3C)cc12` [Compound 1, 3-(4-(2-(5-amino-8-methylbenzo[f][1,7]naphthyridin-2-yl)ethyl)-3-methylphenoxy)propylphosphonic acid], for which the “presence of compound in supernatant when aluminum hydroxide included (HPLC)” value in series [5] (pH 6.5 (adjusted with HCl), aluminium hydroxide 2 mg/mL) was “not present in the supernatant”; in series [5] (setting [11]) it was “not present in the supernatant”. Further, the “solubility in histidine buffer” value in “Solubility” is reported as “poorly soluble”. Moreover, the “association with aluminium hydroxide adjuvant particles (confocal microscopy)” value in series [6] is listed as “associates with particles of the insoluble metal salt”. Moreover, the “quantity of compound in supernatant of formulation treated with KH2PO4 (desorption by phosphate anions)” value in series [7] (0.5M KH2PO4 pH 9, overnight at 37° C.) is “Increased quantities”. Also, the “Concentration” value in series [7] (control/extract: n-butanol extract of control formulation without aluminum hydroxide) was found to be 217 ± 1 µg/mL; in series [7] (extaract: n-butanol extract of formulation with alum) it was 27 ± 1 µg/mL; in series [7] (phosphate supernatant: formulation with alum treated with 0.5M KH2PO4 pH 9 overnight at 37° C.), 59 ± 1 µg/mL; in series [7] (phosphate/extract: n-butanol extract of KH2PO4-treated formulation with alum), 119 ± 1 µg/mL; in series [7] (supernatant control: formulation without aluminum hydroxide) it was 329 ± 1 µg/mL; in series [7] (supernatant of formulation with 2 mg/ml aluminum hydroxide, 10 mM histidine buffer, pH 9) it was 5 ± 1 µg/mL.
Consider `Cc1ccc2c(c1)nc(N)c1ncc(CCc3ccc(OCCCC(F)(F)P(=O)(O)O)cc3C)cc12` [Compound 5, 4-(4-(2-(5-amino-8-methylbenzo[f][1,7]naphthyridin-2-yl)ethyl)-3-methylphenoxy)-1,1-difluorobutylphosphonic acid], for which the “presence of compound in supernatant when aluminum hydroxide included (HPLC)” value is reported as “not present in the supernatant” in series [5] (pH 6.7, 10 mM histidine buffer, aluminium hydroxide 2 mg/mL) and “not present in the supernatant” in series [5] (setting [11]).
With `Cc1cc(OCCOCCOCCC(F)(F)P(=O)(O)O)ccc1CCc1cnc2c(N)nc3cc(CCC(=O)O)ccc3c2c1` [Compound 17, 3-(5-amino-2-(4-(2-(2-(3,3-difluoro-3-phosphonopropoxy)ethoxy)ethoxy)-2-methylphenethyl)benzo[f][1,7]naphthyridin-8-yl)propanoic acid], the “% bound to alum” value in series [1] (setting [8]) stood at 96.2%. The “muscle level of compound” value in series [3] (setting [9]) is listed as “readily detected”; in series [3] (setting [10]), “undetectable”. For the same molecule, the “compound in supernatant after addition of aluminum hydroxide (HPLC)” value in series [4] is recorded as “no compound was observed in the supernatant”.

Source of the values: US9950062B2, “Compounds and compositions as TLR activity modulators” (priority 2009, dated 2018).
